EC50 data for 22 compounds are collected here from patent US20210315893A1 (Galapagos NV, priority 2017, published 2021).

Molecules are shown by their SMILES.

Assay [1] deals with T1, S1PR2 (Homo sapiens, UniProt O95136).
T1 construct: expressed in transfected cells
In words: S1PR2 binding assay (competition with radioactively labeled S1P, SpA). Particulars: membranes from stable cell line over expressing S1PR2, SpA beads; read-out: S1P2 EC50 (nM), S1PR2 binding EC50. On the procedure:
The following assay can be used for determination of S1PR2 binding. The binding assay measures the potential to compete with radioactively labeled S1P for binding to the receptor.
The assay is performed in a96 well plate where the following reagents are added. First 50 μL compound is added into the assay plate, followed by addition of 100 μL ofa mixture consisting of membrane and Scintillation proximity Assay (SpA) beads [mixture consists […] membranes derived from stable cell line over expressing SPR2, 0.5 mg/well Polyvinyltoluene-Wheat Germ-Agglutinin (PVT-WGA) beads (Perkin Elmer, RPNQOO1)]. All components are diluted in assay buffer containing 20 mM Tris pH 7.5; 10 mM MgCl2; 100 mM NaCl; 0.4% BSA FAF; 1 mM Na3VO4) and incubated for 15 min until addition to the assay plate. Subsequently, 50 ul of radioactively labeled S1P is added to the wells (Sphingosine, D-erythro-[3-3H] 1-phosphate; ARC; ART0778). After an incubation for 2 h at room temperature, plates are centrifuged at 2000 rpm during 20 min. Plates are read on a Topcount reader (Perkin Elmer) immediately after centrifugation (readout time, 1 min/well).

Assay [2] has as its target T2, human GPCR sphingosine 1-phosphate receptor 2 (Homo sapiens, UniProt O95136).
T2 construct: host or cells: CHO
Put plainly: S1PR2 antagonist Ca2+ flux assay. It counts as cell-based. To be noted: antagonist mode, CHO-S1PR2 cells, S1P at EC80, Ca2+ fluorescence; read-out: S1P2 EC50 (nM), S1P2 antagonist EC50. On the procedure:
Triggering of S1PR2 by administration of Sphingosine-1-phosphate leads to a transient increase in intracellular Ca^2+. The Ca^2+ flux assays are measuring the release of Ca^2+ intracellularly by use of a Ca^2+ sensitive fluorescent dye. The assay is firstly run in agonist mode (incubation of compounds alone) to ensure that the Ca^2+ released measured is not caused by the test compound having an agonistic effect. Then the assay is continued in antagonist mode (Sphingosine-1-Phosphate added to incubated medium containing the test compounds).
CHO cells stably overexpressing human GPCR sphingosine 1-phosphate receptor 2 (CHO-S1PR2 Perkin Elmer; ES-594-A) are seeded from a frozen stock in 384 wells sterile microplates (50 μL; 7,500 cells/well) and are incubated overnight at 37° C. and 5% CO2. The next day cells are washed twice with starvation medium (F-12 Ham's medium containing 0.1% BSA (Fatty acid free: FAF)) and left in 25 μL starvation medium for 1 h at 37° C., 5% CO2. After this starvation cells are incubated with 25 μL buffer containing the Ca^2+-sensitive fluorescent dye (0.5 mg Fluo8+125 mg Allura Red in 100 mL of 1% DMSO, in HBSS+20 mM Hepes+5 mM probenecid). The cells are incubated for an additional 1 h after which 10 μL compounds, diluted in HBSS buffer with 20 mM Hepes and 0.1% BSA (FAF), are added to the cells and intracellular Ca2+ changes are immediately measured by reading fluorescence during 3 min (FDSS/pCELL reader). The ratio of the maximal fluorescence over the background fluorescence before compound injection is used to determine compound response.
After readout of the agonist activity, the plates are incubated for 15 min at 37° C. and 5% CO2. Then, cells are stimulated with 10 μL Sphingosine-1-Phosphate (S1P) (Avanti Polar lipids-860492P) at its EC80 concentration. Intracellular Ca2+ changes are immediately measured by reading fluorescence during 3 min (FDSS/pCELL reader). The ratio of the maximal fluorescence over the background fluorescence before compound injection is used to determine compound response.
The obtained ratio's for agonist and antagonist readout were normalized versus vehicle and EC 100 of S1P ascontrols for agonist mode and versus vehicle and […]. From these normalized data EC50 of the compounds are derived.

T1 sequence (O95136 whole entry): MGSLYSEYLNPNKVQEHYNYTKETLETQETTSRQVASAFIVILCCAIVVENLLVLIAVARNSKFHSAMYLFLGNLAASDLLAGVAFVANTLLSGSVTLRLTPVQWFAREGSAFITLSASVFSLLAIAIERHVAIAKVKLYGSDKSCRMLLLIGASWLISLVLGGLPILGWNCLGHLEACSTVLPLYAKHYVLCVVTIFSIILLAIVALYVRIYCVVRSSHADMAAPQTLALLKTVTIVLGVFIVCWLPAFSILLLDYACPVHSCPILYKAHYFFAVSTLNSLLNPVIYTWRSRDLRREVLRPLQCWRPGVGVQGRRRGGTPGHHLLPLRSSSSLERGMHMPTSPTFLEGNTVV
T2 sequence (O95136 whole entry): as above

In general, EC50 refers to the concentration giving half of the maximal effect. As for `O=c1c2ccccc2c(Cc2nc3cc(Cl)c(OC(F)(F)F)cc3[nH]2)nn1C1CCCC1` [Compound 24, 4-[[5-chloro-6-(trifluoromethoxy)-1H-benzimidazol-2-yl]methyl]-2-cyclopentyl-phthalazin-1-one], the EC50 in assay [1] is 8450 nM.

With `O=c1c2ccccc2c(Cc2nc3cc(Cl)c(OC(F)(F)F)cc3[nH]2)nn1C1CCC1` [Compound 26, 4-[[5-chloro-6-(trifluoromethoxy)-1H-benzimidazol-2-yl]methyl]-2-cyclobutyl-phthalazin-1-one], the EC50 in assay [2] was 889 nM. Consider `O=c1c2ccccc2c(Cc2nc3cc(Cl)c(OC(F)(F)F)cc3[nH]2)nn1CC1CCC1` [Compound 28, 4-[[6-chloro-5-(trifluoromethoxy)-1H-benzimidazol-2-yl]methyl]-2-(cyclobutylmethyl)phthalazin-1-one], for which the EC50 in assay [1] was found to be 33300 nM; in assay [2] it was 1490 nM. Taken in the same sequence, the figures for `O=c1c2ccccc2c(Cc2nc3cc(Cl)c(OC(F)(F)F)cc3[nH]2)nn1CC1CCCO1` (stereo not drawn) [Compound 34, 4-[[6-chloro-5-(trifluoromethoxy)-1H-benzimidazol-2-yl]methyl]-2-(THF-2-ylmethyl)phthalazin-1-one] were 5190 nM and 4340 nM. As to `O=c1c2ccccc2c(Cc2nc3cc(Cl)c(OC(F)(F)F)cc3[nH]2)nn1CC1CCCCO1` (stereo not drawn) [Compound 35, 4-[[6-chloro-5-(trifluoromethoxy)-1H-benzimidazol-2-yl]methyl]-2-(tetrahydropyran-2-ylmethyl)phthalazin-1-one], in assay [1], the EC50 is 5410 nM. Turning to `CC1(Cn2nc(Cc3nc4cc(Cl)c(OC(F)(F)F)cc4[nH]3)c3ccccc3c2=O)COC1` [Compound 36, 4-[[6-chloro-5-(trifluoromethoxy)-1H-benzimidazol-2-yl]methyl]-2-[(3-methyloxetan-3-yl)methyl]phthalazin-1-one], the values for the EC50 in assay [1] and in assay [2] were 100000 nM and at least 19900 nM, respectively. Consider `CC1(C)OCC(Cn2nc(Cc3nc4cc(Cl)c(OC(F)(F)F)cc4[nH]3)c3ccccc3c2=O)O1` (stereo not drawn) [Compound 38, 4-[[6-chloro-5-(trifluoromethoxy)-1H-benzimidazol-2-yl]methyl]-2-[(2,2-dimethyl-1,3-dioxolan-4-yl)methyl]phthalazin-1-one], for which the EC50 worked out at 1210 nM in assay [1] and 1280 nM in assay [2].

With `CN1CCCC(Cn2nc(Cc3nc4cc(Cl)c(OC(F)(F)F)cc4[nH]3)c3ccccc3c2=O)C1` (stereo not drawn) [Compound 39, 4-[[6-chloro-5-(trifluoromethoxy)-1H-benzimidazol-2-yl]methyl]-2-[(1-methyl-3-piperidyl)methyl]phthalazin-1-one], the EC50 in assay [1] is 13400 nM; in assay [2], at least 19900 nM.

`CC(C)(C)C(=O)Cn1nc(Cc2nc3cc(Cl)c(OC(F)(F)F)cc3[nH]2)c2ccccc2c1=O` [Compound 44, 4-[[6-chloro-5-(trifluoromethoxy)-1H-benzimidazol-2-yl]methyl]-2-(3,3-dimethyl-2-oxo-butyl)phthalazin-1-one]: the EC50 in assay [2] was determined as 2090 nM. Turning to `O=C(Cn1nc(Cc2nc3cc(OCC(F)F)c(Cl)cc3[nH]2)c2c(C3CC3)cccc2c1=O)N1CCOCC1` [Compound 48, 4-[[6-chloro-5-(2,2-difluoroethoxy)-1H-benzimidazol-2-yl]methyl]-5-cyclopropyl-2-(2-morpholino-2-oxo-ethyl)phthalazin-1-one], the EC50 in assay [2] was 98.4 nM. Still for that read-out and setting: with `N#Cc1cc2[nH]c(Cc3nn(CC(=O)N4CCOCC4)c(=O)c4ccccc34)nc2c(Cl)c1OCC(F)F` [Compound 53, 7-chloro-6-(2,2-difluoroethoxy)-2-[[3-(2-morpholino-2-oxo-ethyl)-4-oxo-phthalazin-1-yl]methyl]-3H-benzimidazole-5-carbonitrile] the figure was 2360 nM. On to `O=c1c2ccccc2c(Cc2nc3cc(Cl)c(OC(F)(F)F)cc3[nH]2)nn1CC1CCCN1` (stereo not drawn) [Compound 55, 4-[[6-chloro-5-(trifluoromethoxy)-1H-benzimidazol-2-yl]methyl]-2-(pyrrolidin-2-ylmethyl)phthalazin-1-one], for which the EC50 was 4570 nM in assay [1] and 1460 nM in assay [2]. Taken in the same sequence, the figures for `O=c1c2ccccc2c(Cc2nc3cc(Cl)c(OC(F)(F)F)cc3[nH]2)nn1CC1CCCNC1` (stereo not drawn) [Compound 58, 4-[[6-chloro-5-(trifluoromethoxy)-1H-benzimidazol-2-yl]methyl]-2-(3-piperidylmethyl)phthalazin-1-one] were 1100 nM and 890 nM. In the case of `O=c1c2ccccc2c(Cc2nc3cc(Cl)c(OC(F)(F)F)cc3[nH]2)nn1CC1CNCCO1` (stereo not drawn) [Compound 63, 4-[[5-chloro-6-(trifluoromethoxy)-1H-benzimidazol-2-yl]methyl]-2-(morpholin-2-ylmethyl)phthalazin-1-one], the EC50 in assay [1] is 1270 nM; in assay [2], 4160 nM. Turning to `CCOc1cc2[nH]c(Cc3nn(CC(=O)O)c(=O)c4ccccc34)nc2cc1C#N` [Compound 138, 2-[4-[(5-cyano-6-ethoxy-1H-benzimidazol-2-yl)methyl]-1-oxo-phthalazin-2-yl]acetic acid], the 50% effective concentration (EC50) in assay [2] amounted to 45 nM. Turning to `N#Cc1cc2[nH]c(Cc3nn(CC(=O)N4CCN(CCO)CC4)c(=O)c4ccccc34)nc2cc1OCC(F)F` [Compound 225, 6-(2,2-difluoroethoxy)-2-[[3-[2-[4-(2-hydroxyethyl)piperazin-1-yl]-2-oxo-ethyl]-4-oxo-phthalazin-1-yl]methyl]-3H-benzimidazole-5-carbonitrile], the EC50 in assay [2] was found to be 388 nM. Regarding `N#Cc1cc2[nH]c(Cc3nn(CC(=O)N4CCC(N5CCOCC5)CC4)c(=O)c4ccccc34)nc2cc1OCC(F)F` [Compound 238, 6-(2,2-difluoroethoxy)-2-[[3-[2-(4-morpholino-1-piperidyl)-2-oxo-ethyl]-4-oxo-phthalazin-1-yl]methyl]-3H-benzimidazole-5-carbonitrile], the EC50 in assay [1] worked out at 5240 nM. Regarding `CS(=O)(=O)NC(=O)Cn1nc(Cc2nc3cc(OCC(F)F)c(F)cc3[nH]2)c2ccccc2c1=O` [Compound 248, 2-[4-[[5-(2,2-difluoroethoxy)-6-fluoro-1H-benzimidazol-2-yl]methyl]-1-oxo-phthalazin-2-yl]-N-methylsulfonyl-acetamide], the EC50 in assay [2] came out at 89.6 nM. On the same count and under the same terms, with `CS(=O)(=O)NC(=O)Cn1nc(Cc2nc3cc(OCC4(C#N)CC4)c(Cl)cc3[nH]2)c2ccccc2c1=O` [Compound 249, 2-[4-[[6-chloro-5-[(1-cyanocyclopropyl)methoxy]-1H-benzimidazol-2-yl]methyl]-1-oxo-phthalazin-2-yl]-N-methylsulfonyl-acetamide] the figure was 10.2 nM. Still for that read-out and setting: with `CC1(COc2cc3nc(Cc4nn(CC(=O)NS(C)(=O)=O)c(=O)c5ccccc45)[nH]c3cc2Cl)CC1` [Compound 250, 2-[4-[[6-chloro-5-[(1-methylcyclopropyl)methoxy]-1H-benzimidazol-2-yl]methyl]-1-oxo-phthalazin-2-yl]-N-methylsulfonyl-acetamide] the figure was 9.39 nM; with `CCOc1ccc2nn(Cc3nn(CC(=O)O)c(=O)c4ccccc34)cc2c1Cl` [Compound 254, 2-[4-[(4-chloro-5-ethoxy-indazol-2-yl)methyl]-1-oxo-phthalazin-2-yl]acetic acid], at least 19900 nM; with `CCOc1ccc2cn(Cc3nn(CC(=O)O)c(=O)c4ccccc34)nc2c1Cl` [compound 22, 2-[4-[(7-chloro-6-ethoxy-indazol-2-yl)methyl]-1-oxo-phthalazin-2-yl]acetic acid], at least 19900 nM.
